Data on 23 molecules can be found in ChEMBL document CHEMBL5346972, “Discovery of HDAC6, HDAC8, and 6/8 Inhibitors and Development of Cell-Based Drug Screening Models for the Treatment of TGF-β-Induced Idiopathic Pulmonary Fibrosis” (J Med Chem, 2023).

Each structure is given as a SMILES string.

The target in data set [1] is T1, Protein deacetylase HDAC6 (Homo sapiens, UniProt Q9UBN7).
T1 sequence (Q9UBN7 whole entry): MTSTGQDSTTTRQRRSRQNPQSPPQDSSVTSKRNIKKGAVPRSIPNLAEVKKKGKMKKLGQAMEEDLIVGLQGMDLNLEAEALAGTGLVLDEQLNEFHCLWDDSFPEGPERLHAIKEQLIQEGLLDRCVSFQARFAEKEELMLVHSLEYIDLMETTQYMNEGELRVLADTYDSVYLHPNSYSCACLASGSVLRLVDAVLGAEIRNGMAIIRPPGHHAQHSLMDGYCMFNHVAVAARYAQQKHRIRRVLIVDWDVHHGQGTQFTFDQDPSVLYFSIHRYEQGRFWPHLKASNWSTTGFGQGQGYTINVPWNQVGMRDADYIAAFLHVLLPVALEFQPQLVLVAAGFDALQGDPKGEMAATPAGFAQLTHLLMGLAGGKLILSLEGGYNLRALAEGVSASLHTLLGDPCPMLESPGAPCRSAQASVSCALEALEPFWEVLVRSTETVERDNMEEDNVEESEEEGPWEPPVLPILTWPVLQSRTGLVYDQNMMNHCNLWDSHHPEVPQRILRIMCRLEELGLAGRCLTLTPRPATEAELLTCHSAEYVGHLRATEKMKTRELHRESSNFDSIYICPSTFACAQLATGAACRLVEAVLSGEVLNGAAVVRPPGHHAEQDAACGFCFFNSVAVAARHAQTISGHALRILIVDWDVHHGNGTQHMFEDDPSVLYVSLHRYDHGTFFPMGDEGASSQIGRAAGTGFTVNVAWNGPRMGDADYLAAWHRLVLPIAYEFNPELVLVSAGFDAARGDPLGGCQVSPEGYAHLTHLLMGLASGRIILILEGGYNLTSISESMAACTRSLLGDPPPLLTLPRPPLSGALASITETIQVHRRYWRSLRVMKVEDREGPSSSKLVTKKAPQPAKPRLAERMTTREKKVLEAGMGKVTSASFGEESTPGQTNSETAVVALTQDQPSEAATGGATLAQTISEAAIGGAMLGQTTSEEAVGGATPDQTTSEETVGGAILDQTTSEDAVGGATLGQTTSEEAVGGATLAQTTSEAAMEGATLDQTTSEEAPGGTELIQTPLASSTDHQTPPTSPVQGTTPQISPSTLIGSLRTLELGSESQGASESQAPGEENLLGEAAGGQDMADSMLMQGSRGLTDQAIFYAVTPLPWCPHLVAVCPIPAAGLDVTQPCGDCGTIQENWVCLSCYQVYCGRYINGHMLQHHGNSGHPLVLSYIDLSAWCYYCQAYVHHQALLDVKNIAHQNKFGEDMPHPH
Briefly: Inhibition of human HDAC6 expressed in baculovirus expression system in Sf9 cells using RHKKAc (379 to 382 residues) fluorogenic peptide as substrate and measured after 2 hrs by fluorescence based analysis.

A further data set addresses T2, Histone deacetylase 8 (Homo sapiens, UniProt Q9BY41).
T2 sequence (Q9BY41 whole entry): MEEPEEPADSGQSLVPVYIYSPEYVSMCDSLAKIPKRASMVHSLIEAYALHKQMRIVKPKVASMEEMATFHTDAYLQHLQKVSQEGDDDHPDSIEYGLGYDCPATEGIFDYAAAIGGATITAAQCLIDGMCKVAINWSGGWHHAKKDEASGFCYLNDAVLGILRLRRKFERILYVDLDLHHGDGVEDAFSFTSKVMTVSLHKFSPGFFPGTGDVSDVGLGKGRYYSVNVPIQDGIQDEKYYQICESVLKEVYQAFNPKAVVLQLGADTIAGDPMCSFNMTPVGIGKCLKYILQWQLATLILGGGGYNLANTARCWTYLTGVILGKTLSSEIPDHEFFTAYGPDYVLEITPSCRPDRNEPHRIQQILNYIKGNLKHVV
Briefly: Inhibition of human HDAC8 expressed in baculovirus expression system in Sf9 cells using RHKAcKAc (379 to 382 residues) fluorogenic peptide as substrate and measured after 2 hrs by fluorescence based analysis.

Another data set addresses Histone deacetylase 1 (Homo sapiens, UniProt Q13547). Briefly: Inhibition of human HDAC1 expressed in baculovirus expression system in Sf9 cells using RHKKAc (379 to 382 residues) fluorogenic peptide as substrate and measured after 2 hrs by fluorescence based analysis.
For data set [2], the system named is NIH3T3. In words: Antiproliferative activity against mouse NIH3T3 cells assessed as reduction in cell viability by measuring optimal working concentration incubated for 3 days by CCK-8 assay relative to control. Particulars: time 3 day. The format is functional.
The nature of data set [3]: in vitro. Particulars: human.
The nature of data set [4]: Antiproliferative activity against human Pulmonary fibroblast cells assessed as reduction in cell viability incubated for 3 days by CCK-8 assay. The format is functional, cell-based. Particulars: 72 h. On the technique in general: Tetrazolium dyes change colour on reduction, which living cells bring about.
Data set [5] in a line: Antiproliferative activity against human Pulmonary fibroblast cells assessed as reduction in cell viability by measuring optimal working concentration incubated for 3 days by CCK-8 assay. In kind it is functional. Particulars: time 3 day.
Data set [6] is described as follows: in vitro. Particulars: human. The source holds these as a separate data set.
Data set [7] can be described thus: in vitro. Particulars: human, Caco-2.
Description: Apparent permeability across apical to basolateral side in human Caco-2 cells at 10 uM preincubated for 10mins followed by compound addition and measured after 90 mins by LC-MS/MS analysis
The nature of data set [8]: Metabolic stability in human liver microsomes assessed as parent compound remaining at 200 uM preincubated for 5 mins followed by NADPH and measured at 60 mins by LC-MS/MS analysis.
The test system of data set [9] is NIH3T3. In words: Antiproliferative activity against mouse NIH3T3 cells assessed as reduction in cell viability incubated for 3 days by CCK-8 assay. The format is functional, cell-based. Particulars: NIH3T3, 72 h.

Usually IC50 stands for the concentration that gives 50% inhibition. By half-life is commonly meant how long it takes for the measured level to halve. A higher half-life goes with slow loss. As usually defined, the CLint scaled is a measure of how fast metabolising enzymes remove a compound, apart from limits set by blood flow. A higher CLint scaled goes with faster metabolism. By Papp A→B is commonly meant the apparent permeability from the apical to the basolateral side of a cell layer. The term share remaining denotes the share of the starting amount still present when the sample was taken.

Histone deacetylase 1, sequence (Q13547 whole entry, the tested form may be a part): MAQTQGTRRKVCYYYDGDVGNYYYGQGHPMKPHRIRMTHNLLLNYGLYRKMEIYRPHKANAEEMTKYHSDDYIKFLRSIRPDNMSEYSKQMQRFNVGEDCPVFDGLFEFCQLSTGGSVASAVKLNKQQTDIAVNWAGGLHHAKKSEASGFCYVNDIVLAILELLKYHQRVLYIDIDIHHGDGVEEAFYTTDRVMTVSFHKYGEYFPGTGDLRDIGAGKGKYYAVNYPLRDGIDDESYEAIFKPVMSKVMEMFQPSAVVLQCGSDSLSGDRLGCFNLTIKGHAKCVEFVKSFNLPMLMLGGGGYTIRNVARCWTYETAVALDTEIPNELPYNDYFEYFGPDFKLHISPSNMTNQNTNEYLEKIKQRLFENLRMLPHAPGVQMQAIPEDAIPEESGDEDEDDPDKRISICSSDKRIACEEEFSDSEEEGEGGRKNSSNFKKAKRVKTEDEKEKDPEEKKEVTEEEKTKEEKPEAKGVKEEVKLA

In the case of `Cn1c(CCC(=O)NO)nc2ccccc2c1=O`, the results for the IC50 (in data set [1]; on Histone deacetylase 8; on Histone deacetylase 1) were 22 µM, 10.4 µM and > 30 µM, respectively.

On to `O=C(NO)c1ccc(/C=C/c2nc3ccccc3c(=O)[nH]2)cc1`, for which the MEC is 2.27 µM in the data set with NIH3T3 [2] and 10 µM in [5]. Moreover, the half-life at 1 h, 200 µM in the data set “in vitro [3]” (liver microsomes) came out at 1.26 h. Also, the IC50 in data set [4] was > 40 µM; in [1] it was 0.028 µM; at Histone deacetylase 8 it was 0.325 µM; in the data set with NIH3T3 [9], 5.02 µM; on Histone deacetylase 1 it was 16.2 µM. Moreover, the CLint scaled at 1 h, 200 µM in “in vitro [6]” (liver microsomes) amounted to 10.5 mL/min/kg. This molecule also displayed a Papp A→B at 1.5 h, 10 µM in the data set “in vitro [7]” of 0.3 ×10⁻⁶ cm/s. In addition, in [8] (liver microsomes), the fraction remaining at 1 h, 200 µM stood at 58.1%.

Take `O=C(NO)c1ccc(Cn2c(=O)n(CCc3ccccc3)c(=O)c3ccccc32)cc1`: the MEC with NIH3T3 [2] stood at 2.88 µM. Further, the figures for the IC50 in the data set with NIH3T3 [9] and against Histone deacetylase 1 were 5.1 µM and > 10 µM, respectively.

Regarding `O=C(CCn1c(=O)n(Cc2ccccc2)c(=O)c2ccc(Cl)cc21)NO`, the MEC in the data set on NIH3T3 [2] came out at 2.9 µM. The IC50 was 0.047 µM in [1], 9.12 µM with NIH3T3 [9] and > 10 µM at Histone deacetylase 1.

For the molecule `O=C(NO)c1ccc(Cn2c(=O)n(CCc3ccccc3)c(=O)c3ccccc32)c(F)c1`, the MEC in the data set with NIH3T3 [2] was found to be 0.73 µM. The 50% inhibitory concentration (IC50) in data set [1] worked out at 0.108 µM; on Histone deacetylase 8, 0.255 µM; in the data set with NIH3T3 [9], 10.1 µM; against Histone deacetylase 1, 14.5 µM.

For `O=C(NO)c1ccc(Cn2c(=O)n(CCc3ccccc3)c(=O)c3cc(Cl)ccc32)cc1`, in the data set with NIH3T3 [2], the MEC stood at 0.81 µM. Moreover, the IC50 in the data set with NIH3T3 [9] stood at 3.79 µM.

Take `O=C(CS)Nc1ccc(Cn2c(=O)[nH]c(=O)c3cccc(Cl)c32)cc1`: in [1], half-maximal inhibition (IC50) was put at 0.0053 µM.

With `O=C(NO)c1ccc(Cn2c(=O)[nH]c(=O)c3c(Cl)cccc32)cc1`, the MEC with NIH3T3 [2] stood at 12 µM. Moreover, the IC50 was 0.013 µM in data set [1], 0.281 µM against Histone deacetylase 8, 23.3 µM with NIH3T3 [9] and 3.32 µM against Histone deacetylase 1.

As for `O=C(NO)c1ccc(Cn2c(=O)[nH]c(=O)c3cc(F)ccc32)cc1`, the IC50 in data set [1] came out at 0.006 µM; on Histone deacetylase 8 it was 0.222 µM; in the data set on NIH3T3 [9] it was 4.76 µM; at Histone deacetylase 1, 1.27 µM.

Take `CCc1nc2c(Cc3ccc(C(=O)NO)cc3)cccc2c(=O)n1CCc1ccccc1`: the MEC in the data set with NIH3T3 [2] was found to be 0.4 µM. Besides, the IC50 with NIH3T3 [9] was 338 µM.

`O=C(NO)c1ccc(Cn2c(=O)[nH]c(=O)c3ccc(F)cc32)cc1`: the MEC with NIH3T3 [2] stood at 2.7 µM. Also, the IC50 in data set [1] is 0.0016 µM; against Histone deacetylase 8, 0.154 µM; in the data set on NIH3T3 [9], 15.3 µM; on Histone deacetylase 1, 0.423 µM.

On to `O=C(NO)c1cccc(Cn2c(=O)[nH]c(=O)c3cccc(Cl)c32)c1`, for which the MEC in the data set on NIH3T3 [2] is 10 µM. Besides, the IC50 is 5.95 µM in data set [1], 0.966 µM against Histone deacetylase 8, > 40 µM in the data set on NIH3T3 [9] and > 30 µM against Histone deacetylase 1.

With `O=C(NO)c1ccc(-c2nc3ccccc3c(=O)[nH]2)cc1`, the MEC in the data set with NIH3T3 [2] was 10 µM; in data set [5] it was 5 µM. Further, the IC50 is > 40 µM in data set [4]; 0.317 µM in data set [1]; 1.62 µM against Histone deacetylase 8; > 40 µM in the data set on NIH3T3 [9]; > 30 µM at Histone deacetylase 1.

Consider `O=C(NO)c1ccc(Cn2c(=O)[nH]c(=O)c3cc(Br)ccc32)cc1`, for which the MEC in the data set with NIH3T3 [2] was determined as 6.05 µM. The IC50 in [1] came out at 0.018 µM; against Histone deacetylase 8 it was 0.371 µM; in the data set with NIH3T3 [9], 757 µM; against Histone deacetylase 1, 4.28 µM.

Turning to `COc1ccccc1CCn1c(=O)c2ccccc2n(Cc2ccc(C(=O)NO)cc2)c1=O`, the IC50 with NIH3T3 [9] is 9.55 µM.

Turning to `COc1ccc2c(c1)[C@]13CCCC[C@@H]1[C@H](C2)N(C)CC3` [DEXTROMETHORPHAN], the half-life at 1 h, 200 µM in “in vitro [3]” (liver microsomes) is 0.582 h. In the data set “in vitro [6]” (liver microsomes), this molecule showed a CLint scaled at 1 h, 200 µM of 14.3 mL/min/kg. Further, the amount remaining at 1 h, 200 µM in data set [8] (liver microsomes) worked out at 30.4%.

As to `O=C(NO)c1ccc(Cn2c(=O)n(CCc3ccccc3)c(=O)c3ccc(C(F)(F)F)cc32)cc1`, the MEC in the data set with NIH3T3 [2] was 1.24 µM. Also, the IC50 in the data set on NIH3T3 [9] was determined as 4.23 µM.

Turning to `CCc1nc2ccc(/C=C/CC(=O)NO)cc2c(=O)n1-c1ccccc1`, the MEC in the data set on NIH3T3 [2] turned out to be 10 µM. Moreover, the IC50 was 0.285 µM in data set [1], 3.69 µM at Histone deacetylase 8, > 40 µM with NIH3T3 [9] and 15.9 µM against Histone deacetylase 1.

Take `O=C(CCn1c(=O)n(CCc2ccccc2)c(=O)c2ccccc21)NO`: in the data set with NIH3T3 [2], the MEC is 1.14 µM. The IC50 in data set [1] is 0.798 µM; against Histone deacetylase 8 it was 0.454 µM; with NIH3T3 [9], 7.14 µM; on Histone deacetylase 1, > 10 µM.

As to `O=C(NO)c1ccc(Cn2c(=O)[nH]c(=O)c3ccc(C(F)(F)F)cc32)cc1`, in the data set with NIH3T3 [2], the MEC is 4.72 µM. Moreover, the IC50 amounted to 0.058 µM in data set [1], 0.302 µM at Histone deacetylase 8, 16 µM with NIH3T3 [9] and 5.18 µM against Histone deacetylase 1.

Take `Cc1nc2ccc(/C=C/CC(=O)NO)cc2c(=O)n1-c1ccccc1`: the MEC (with NIH3T3 [2]; in data set [5]) was 10 µM in each case. In “in vitro [3]” (microsomes), the half-life at 1 h, 200 µM is > 3.11 h. Further, the IC50 in data set [4] is > 40 µM; in [1], 0.168 µM; against Histone deacetylase 8, 3.73 µM; with NIH3T3 [9], > 40 µM; against Histone deacetylase 1, 17.3 µM. Further, the CLint scaled at 1 h, 200 µM in “in vitro [6]” (microsomes) was < 6.1 mL/min/kg. Moreover, the amount remaining at 1 h, 200 µM in [8] (microsomes) was 84.3%.

Take `O=C(NO)c1ccc(Cn2c(=O)n(CCc3ccccc3O)c(=O)c3ccccc32)cc1`: in the data set with NIH3T3 [2], the MEC worked out at 4.94 µM. In addition, the IC50 in the data set on NIH3T3 [9] amounted to 9.95 µM.

Turning to `N#Cc1ccc2c(=O)n(CCc3ccccc3)c(=O)n(Cc3ccc(C(=O)NO)cc3)c2c1`, the MEC in the data set with NIH3T3 [2] worked out at 4.5 µM. Moreover, the IC50 against Histone deacetylase 8 amounted to 0.13 µM; with NIH3T3 [9] it was 735 µM.
